# Measurements as given in patent US8680013B2, “Growth inhibition of cotton with penoxsulam” (Dow AgroSciences, LLC., priority 2011, dated 2014).
# Like-named read-outs stand apart in the source and are kept apart here.
# Tests used:
# Assay type in all cases: in vivo
# [1] = test system: Amaranthus spp, (pigweed); experiment: Field trial visual weed control, AMASS; conditions: 16DAA
# Description: (§1) One field trial was conducted in field-grown cotton using standard herbicide small plot research methodology (Table 2). Plots were 2 rows wide by 20 ft long with 4 replicates per treatment. The cotton crop was grown using normal cultural practices for fertilization, seeding, watering, flooding and maintenance to ensure good growth of the crop and the weeds.
# (§2) All treatments in the field trials were applied using a CO2 backpack sprayer calibrated to apply 187 L/ha spray volume. Commercially available products of penoxsulam and mepiquat chloride were mixed in water at appropriate formulated product rates to achieve the desired rates based on a unit area of application (hectare) to achieve the desired rates as shown. Treatments were sprayed as a postemergence foliar application to cotton at 10-leaf stage application timing. Treatments were rated at 16 and 41 days after the application as compared to the untreated control plants. Visual crop injury ratings were scored on a scale of 0 to 100 where 0 corresponds to no injury and 100 corresponds to complete control. Visual weed control was scored on a scale of 0 to 100 percent where 0 corresponds to no weed control and 100 corresponds to complete control.
# cotton [2] = experiment: Postemergence plant growth regulator activity in the field (cotton); conditions: for Injury (Cotton) / Reduction (height reduction, Cotton) / Maturity (% open bolls, Cotton): 10-leaf stage
# Description: Evaluation of Postemergence Plant Growth Regulator Activity in the Field
# as §1, §2
# [3] = test system: Solanum nigrum (black nightshade); experiment: Field trial visual weed control, SOLNI; conditions: 16DAA
# Description: as §1, §2
# cotton [4] = conditions: for Number (Bolls): 52DAAA
# Description: Evaluation of Postemergence Plant Growth Regulator Activity in the Greenhouse Treatments consisted of the compounds as listed in Table 1. Formulated amounts of penoxsulam (Dow AgroSciences Granite® SC herbicide) were placed in 3-liter bottles and dissolved in a volume of 500 mL of a water solution containing Agri-dex crop oil concentrate in a 1.25% v/v ratio. Compound requirements are based upon a 0.3 L application volume at a rate of 187 liters per hectare (L/ha). Spray solutions of the mixtures were prepared by adding the stock solutions to the appropriate amount of dilution solution to form a 500 mL spray solution with active ingredients in single and two way combinations. Formulated compounds were applied to the plant material via backpack sprayer with XR 11001 nozzles calibrated to deliver 187 L/ha at a spray height of 18 inches ([…] centimeters (cm)) above average plant canopy. The treated and control plants were placed in a greenhouse in a randomized block design on greenhouse carts and watered by […] irrigation to prevent wash-off of the test compounds from leafy tissues. Treatments were rated at 14 to 52 days after application as compared to the untreated control plants. Visual injury ratings were scored on a scale of 0 to 10 where 0 corresponds to no injury and 10 corresponds to complete control.
smiles,measurement,setting,value
C[N+]1(C)CCCCC1 [Mepiquat-chloride],Control (AMASS),[1]; 74 gr ai/ha,95 % Visual
same,Injury (Cotton),"cotton [2]; 74 gr ai/ha, 16DAA",0 % Visual
same,"Reduction (height reduction, Cotton)","cotton [2]; 74 gr ai/ha, 16DAA",11.3 % Visual
same,Injury (Cotton),"cotton [2]; 74 gr ai/ha, 41DAA",5 % Visual
same,"Maturity (% open bolls, Cotton)","cotton [2]; 74 gr ai/ha, 41DAA",53.8 % Visual
same,"Reduction (height reduction, Cotton)","cotton [2]; 74 gr ai/ha, 41DAA",13.8 % Visual
same,Control (SOLNI),[3]; 74 gr ai/ha,91.3 % Visual
"COc1cnc(OC)n2nc(NS(=O)(=O)c3c(OCC(F)F)cccc3C(F)(F)F)nc12 [Penoxsulam, 2-(2,2-difluoroethoxy)-N-(5,8-dimethoxy[1.2.4]triazolo[1,5-c]pyrimidine-2-yl)-6-(trifluoromethyl)benzenesulfonamide]",Control (AMASS),[1]; 35 gr ai/ha,95 % Visual
same,Control (AMASS),[1]; 70 gr ai/ha,98.8 % Visual
same,"Reduction (height reduction, Cotton)","cotton [2]; 35 gr ai/ha, 16DAA",11.3 % Visual
same,"Maturity (% open bolls, Cotton)","cotton [2]; 35 gr ai/ha, 41DAA",62.5 % Visual
same,"Reduction (height reduction, Cotton)","cotton [2]; 35 gr ai/ha, 41DAA",10 % Visual
same,"Reduction (height reduction, Cotton)","cotton [2]; 70 gr ai/ha, 16DAA",9.3 % Visual
same,"Maturity (% open bolls, Cotton)","cotton [2]; 70 gr ai/ha, 41DAA",48.8 % Visual
same,"Reduction (height reduction, Cotton)","cotton [2]; 70 gr ai/ha, 41DAA",5 % Visual
same,plant growth regulator effect on cotton (summary of Table 2),cotton [2]; field,"growth inhibiting activity of penoxsulam, similar to the commercial product mepiquat-chloride, while increasing the maturity of cotton bolls"
same,Control (SOLNI),[3]; 35 gr ai/ha,88.8 % Visual
same,Control (SOLNI),[3]; 70 gr ai/ha,93.8 % Visual
same,Height,"cotton [4]; 8.8 gr ai/ha, application A (4 leaf cotton), 14DAAA",17.6 Cm
same,Height,"cotton [4]; 8.8 gr ai/ha, application A (4 leaf cotton), 27DAAA",25.5 Cm
same,Height,"cotton [4]; 8.8 gr ai/ha, application A (4 leaf cotton), 49DAAA",36.6 Cm
same,Number (Bolls),"cotton [4]; 8.8 gr ai/ha, application A (4 leaf cotton)",3.2 Bolls
same,Height,"cotton [4]; 8.8 gr ai/ha, application B (10 leaf cotton, 21 days after A timing), 14DAAA",28.8 Cm
same,Height,"cotton [4]; 8.8 gr ai/ha, application B (10 leaf cotton, 21 days after A timing), 27DAAA",32.7 Cm
same,Height,"cotton [4]; 8.8 gr ai/ha, application B (10 leaf cotton, 21 days after A timing), 49DAAA",44 Cm
same,Number (Bolls),"cotton [4]; 8.8 gr ai/ha, application B (10 leaf cotton, 21 days after A timing)",9 Bolls
same,Height,"cotton [4]; 17.5 gr ai/ha, application A (4 leaf cotton), 14DAAA",15.7 Cm
same,Height,"cotton [4]; 17.5 gr ai/ha, application A (4 leaf cotton), 27DAAA",21.8 Cm
same,Height,"cotton [4]; 17.5 gr ai/ha, application A (4 leaf cotton), 49DAAA",33.5 Cm
same,Number (Bolls),"cotton [4]; 17.5 gr ai/ha, application A (4 leaf cotton)",2.2 Bolls
same,Height,"cotton [4]; 17.5 gr ai/ha, application B (10 leaf cotton, 21 days after A timing), 14DAAA",27.2 Cm
same,Height,"cotton [4]; 17.5 gr ai/ha, application B (10 leaf cotton, 21 days after A timing), 27DAAA",30.4 Cm
same,Height,"cotton [4]; 17.5 gr ai/ha, application B (10 leaf cotton, 21 days after A timing), 49DAAA",39.2 Cm
same,Number (Bolls),"cotton [4]; 17.5 gr ai/ha, application B (10 leaf cotton, 21 days after A timing)",8.4 Bolls
same,Height,"cotton [4]; 35 gr ai/ha, application A (4 leaf cotton), 14DAAA",15.5 Cm
same,Height,"cotton [4]; 35 gr ai/ha, application A (4 leaf cotton), 27DAAA",20.5 Cm
same,Height,"cotton [4]; 35 gr ai/ha, application A (4 leaf cotton), 49DAAA",30.1 Cm
same,Number (Bolls),"cotton [4]; 35 gr ai/ha, application A (4 leaf cotton)",2.8 Bolls
same,plant growth regulator effect on cotton (summary of Table 1),cotton [4]; greenhouse,growth regulating activity of penoxsulam on cotton growth and increase in cotton boll production
